Results as given in patent US20160243011A1, “Formulations Comprising Idebenone, N-Acetyl-S-Farnesyl-L-Cysteine and Ergothioneine and Uses Thereof” (ELIZABETH ARDEN, INC., priority 2012, published 2016).

Columns and labels:
[1] = Radical scavenging capacity (oxidation of ABTS by metmyoglobin); format: biochemical; conditions: for EPF Score: Example 3, scores: 10^−3 M=5, 10^−4 M=15, 10^−5 M=20; for Effective and oxidant conc: lowest effective concentration, OD 750 nm
Source text: This assay analyzed the overall antioxidant capacity of test ingredients for the ability to inhibit the oxidation of 2,2′-azino-bis(3-ethylbenzothiazoline-6-sulphonic acid) (ABTS). to ABTS.^+ by metmyoglobin. The testing involved the suppression of optical density (OD) at 750 nm to a degree that is proportional to an effective oxidation inhibition. The EPF scoring system was based on the lowest effective concentration as previously described by MacDaniel et al., 2005 and scores were assigned as follows: 10^−3 M=5; 10^−4 M=15; 10^−5 M=20.

[2] = test system: Human LDL; experiment: LDL pro-oxidative system measuring primary oxidation by-products; format: biochemical; conditions: 100 μM; for Lipid hydrogen-peroxide % protection: CuSO4 oxidative system, 24 hours; for EPF Score: Example 4
Method: Human LDL was oxidized with or without 0.1 mM materials under a CuSO4 oxidative system in Ham's F-10 medium.

[3] = test system: TNFα; experiment: UVB induced TNFα release in NHEKs (ELISA); format: cell-based, Human; conditions: for TNFα (% inh) / EPF Score: 1 μM; for TNFα (% inh) / inhibition at 1 µM: 6 hours pre-treatment, NHEK, UVB 25 mJ/cm2, 24 hours; for EPF Score: Example 8 (8B), TNFα; for inhibition at 1 µM: Homo sapiens, light or radiation study, read-out: TNFα (% inh)
Method: (§1) In order to evaluate the impact of UV-induced inflammation in human skin, primary cell monolayer cultures were exposed to different types of UV radiation, i.e. UVB and UVA. Primary Human Dermal Fibroblasts (HDFs) were irradiated with UVA (350 nm) and Normal Human Epidermal Keratinocytes cells (NHEKs) with UVB (305 nm). HDFs were cultured in Dulbecco's Modified Eagle Medium (DMEM) basal medium (Life Technologies, Grand Island, N.Y.), supplemented with 10% v/v fetal bovine serum (FBS), (referred to as supplemented media) at 37° C. with 5% CO2 NHEKs were cultured in Epilife® basal medium (Life Technologies, Grand Island, N.Y.), supplemented with 60 μM calcium, 0.2% v/v bovine pituitary extract (BPE), 5 μg/ml bovine insulin, 0.18 μg/ml hydrocortisone, 5 μg/ml bovine transferrin, 5 μg/ml, 0.2 ng/ml human epidermal growth factor (referred to as supplemented media) at 37° C. with 5% CO2.
(§2) In order to avoid possible immunomodulating effects of these agents during compound treatments, cells were kept in DMEM or Epilife® basal medium without growth supplements (referred to as depleted media). Cells were plated at a concentration of 3.8×10^4 cells/well in supplemented media in 24-well plates. After cells were allowed to adhere (24 hours), media was changed to depleted media.
(§3) For “blend” testing, a formulation of idebenone, Arazine™ and ergothioneine (1:1:1 molar ratio) was prepared before mixing to medium. Six hours after pre-treatments, to induce a pro-inflammatory response, pre-treatment media was removed and replaced with phosphate-buffered saline (PBS).
(§4) Immediately after UV irradiation, cells were placed in fresh depleted medium for 24 hours. Cell cultures were examined for viability by the reduction of 3-(4,5-dimethylthiazol-2-yl)-5-(3-carboxymethoxyphenyl)-2-(4-sulfophenyl)-2H-tetrazolium (MTS assay; Promega, Madison, Wis.) to determine the percentage of viable cells after compound and UV irradiation. Media supernatants were harvested from non-irradiated and UV irradiated cells and assayed by enzyme-linked immunosorbent assays (ELISA) for the stimulated release of pro-inflammatory mediators. NHEKs were assayed for concentrations of Interleukin-6 (IL-6) and Tumor Necrosis Factor-alpha (TNF-alpha) using appropriate protein standards (BD Biosciences; San Jose, Calif.). HDFs were assayed for concentrations of IL-6 (BD Biosciences) or pro-Matrix Metalloproteinase-1 (pro-MMP-1) using appropriate protein standards (R&D Systems; Minneapolis, Minn.).
(§5) Control groups contained non-irradiated cells. Twenty four hours later, cell medium were assayed for the presence of pro-inflammatory mediators by ELISA.
(§6) To test these anti-oxidants for anti-inflammatory properties, primary Human Epidermal Keratinocytes (NHEKs) were cultured in the presence of each ingredient for 6 hours. Ingredients were then removed and cells were irradiated with 25 mJ/cm2 UVB. Media supernatants were collected after 24 hours and analyzed by ELISA for IL-6 and TNF-α. All ingredients were tested at 1 μM.

[4] = test system: Primary Human Epidermal Keratinocytes (NHEKs); experiment: UVB induced DNA damage (thymine dimer formation); format: cell-based; conditions: 1 μM, 6 hours pre-treatment; UVB 200 mJ/cm^2
Method: Primary Human Epidermal Keratinocytes (NHEKs) were cultured in the presence of each test ingredient (1 μM) for 6 hours and later removed prior to UVB irradiation (200 mJ/cm^2). Cells were fixed after 1 hour and stained with anti-thymine dimer antibody. Positive rounded stained cells were counted using a fluorescence microscope.

[5] = test system: pro-MMP-1; experiment: UVA induced pro-MMP-1 production in HDFs (ELISA); format: cell-based, Human; conditions: for MMP-1 (% inh) / EPF Score: 1 μM; for MMP-1 (% inh) / inhibition at 1 µM: 6 hours pre-treatment, HDF, UVA 12.5 J/cm^2, 24 hours; for EPF Score: Example 9 (9B), MMP-1; for inhibition at 1 µM: Homo sapiens, light or radiation study, read-out: MMP-1 (% inh)
Method: as §1, §2, §3, §4
(§7) To test these anti-oxidants for anti-inflammatory and anti-aging properties, primary Human Dermal Fibroblasts (HDFs) were cultured in the presence of each ingredient for 6 hours. […] Media supernatants were collected after 24 hours and analyzed by ELISA for IL-6 and pro-MMP-1. All ingredients were tested at 1 μM.

[6] = test system: Rat liver microsomes; experiment: Microsome pro-oxidative system measuring secondary oxidation by-products (TBARS); format: biochemical; conditions: 100 μM; for Lipid MDA % protection: NADPH/ADP/Fe^3+ oxidative system, 24 hours; for EPF Score: Example 5
Method: Rat liver microsomes were oxidized with or without test ingredients at 0.1 mM using a NADPH/ADP/Fe^3+ oxidative system. Secondary oxidation products were quantified after 24 hours incubation by measuring MDA equivalents directly utilizing the production of Thiobarbituric acid-reactive substances (TBARS). Results are expressed as the change in optical density (OD) at 532 nm to a degree that is proportional to an effective oxidation inhibition based on 1,1,3,3-tetraethoxypropane as MDA-TBA production standard.

[7] = test system: IL-6; experiment: UVB induced IL-6 release in NHEKs (ELISA); format: cell-based, Human; conditions: for IL-6 (% inh) / EPF Score: 1 μM; for IL-6 (% inh) / inhibition at 1 µM: 6 hours pre-treatment, NHEK, UVB 25 mJ/cm2, 24 hours; for EPF Score: Example 8 (8A), IL-6; for inhibition at 1 µM: Homo sapiens, light or radiation study, read-out: IL-6 (% inh)
Method: as §1, §2, §3, §4, §5, §6

[8] = Total Environmental Protection Factor (EPF) score; conditions: 180 point scoring system (20 points for each endpoint measured)
[9] = test system: EpiDerm™ inserts; experiment: UVB induced sun burn cell (SBC) formation using EpiDerm; format: cell-based; conditions: for SBC % inhibition / inhibition at 1000 µM: 1 mM topical, 6 hours, UVB 200 mJ/cm^2, fixed after 24 hours; for EPF Score: Example 7, 1 mM; for inhibition at 1000 µM: light or radiation study
Method: EpiDerm™ inserts (MatTek®) were topically treated in the presence of each test ingredient for 6 hours, after which they were removed, inserts were irradiated with 200 mJ/cm^2 UVB, and they fixed for H&E staining after 24 hours. The number of sun burn cells (SBCs) (white arrows) was counted. All compounds were tested at 1 mM.

[10] = test system: IL-6; experiment: UVA induced IL-6 production in HDFs (ELISA); format: cell-based, Human; conditions: for IL-6 (% inh) / EPF Score: 1 μM; for IL-6 (% inh) / inhibition at 1 µM: 6 hours pre-treatment, HDF, UVA 12.5 J/cm^2, 24 hours; for EPF Score: Example 9 (9A), IL-6; for inhibition at 1 µM: Homo sapiens, light or radiation study, read-out: IL-6 (% inh)
Method: as §1, §2, §3, §4, §7

[11] = test system: IL-6; experiment: UVB induced IL-6 release in NHEKs (ELISA); format: cell-based; conditions: Homo sapiens, light or radiation study; Compound (0.1 μM); NHEK, UVB 25 mJ/cm^2, medium assayed 24 h later; read-out: IL-6 (% inhibited)
[12] = test system: TNFα; experiment: UVB induced TNFα release in NHEKs (ELISA); format: cell-based; conditions: Homo sapiens, light or radiation study; Compound (0.1 μM); NHEK, UVB 25 mJ/cm^2, medium assayed 24 h later; read-out: TNFα (% inhibited)
[13] = test system: Primary Human Epidermal Keratinocytes (NHEKs); experiment: UVB induced DNA damage (thymine dimer formation); format: cell-based; conditions: Example 6; 1 μM

Compound | EPF Score [1] | Effective and oxidant conc [1] [mM] | Lipid hydrogen-peroxide % protection [2] [%] | EPF Score [2] | EPF Score [3] | DNA damage % protection [4] [%] | EPF Score [5] | Lipid MDA % protection [6] [%] | EPF Score [6] | EPF Score [7] | Total EPF score (TTL) [8] | EPF Score [9] | EPF Score [10] | inhibition at 0.1 µM [11] [%] | inhibition at 0.1 µM [12] [%] | EPF Score [13] | inhibition at 1 µM [3] [%] | inhibition at 1 µM [5] [%] | inhibition at 1 µM [7] [%] | inhibition at 1000 µM [9] [%] | further results
O=C(O)CCCC[C@@H]1CCSS1 (racemic) [Lipoic acid] | 5 | >3 | 5 | 2 | 14 | 13 | 16 | 25 | 7 | 14 | 94 | 8 | 13 | – | – | – | – | – | – | – | TNFα (% inh) [3]: 52%; MMP-1 (% inh) [5]: 80%; IL-6 (% inh) [7]: 46%; SBC % inhibition [9]: 27%; IL-6 (% inh) [10]: 62%
CC(=O)N[C@@H](CSC/C=C(\C)CC/C=C(\C)CCC=C(C)C)C(=O)O [Arazine ™, N-acetyl-S-farnesyl-L-cysteine] | – | – | – | – | – | – | – | – | – | – | – | – | – | 28 | 33 | – | – | – | – | – | –
C[N+](C)(C)C(Cc1c[nH]c(=S)[nH]1)C(=O)O (stereo not drawn) [Ergothioneine, 3-(2-sulfanylidene-1,3-dihydroimidazol-4-yl)-2-(trimethylazaniumyl)propanoate] | – | – | – | – | – | – | – | – | – | – | – | – | – | 12 | 35 | – | – | – | – | – | –
COc1cc(/C=C/C(=O)O)ccc1O [Ferulic acid] | 20 | 0.03 | 94 | 20 | 14 | 14 | 7 | 63 | 17 | 16 | 130 | 18 | 13 | – | – | 5 | 55 | 37 | 54 | 64 | inhibition at 1 µM [10]: 62%
COC1=C(OC)C(=O)C(CCCCCCCCCCO)=C(C)C1=O [Idebenone] | – | – | – | – | – | – | – | – | – | – | – | – | – | 15 | 47 | – | – | – | – | – | –
c1coc(CNc2ncnc3[nH]cnc23)c1 [Kinetin] | – | – | 1 | 1 | 10 | 14 | 2 | 0 | 0 | 16 | – | 18 | 15 | – | – | – | – | – | – | 62 | –
COC1=C(OC)C(=O)C(C/C=C(\C)CC/C=C(\C)CC/C=C(\C)CC/C=C(\C)CC/C=C(\C)CC/C=C(\C)CC/C=C(\C)CC/C=C(\C)CC/C=C(\C)CCC=C(C)C)=C(C)C1=O [Ubiquinone] | 5 | >3 | 14 | 5 | 12 | 9 | 5 | 62 | 17 | 10 | 87 | 13 | 17 | – | – | 3 | 48 | 26 | 34 | 46 | inhibition at 1 µM [10]: 79%
O=C1O[C@H]([C@@H](O)CO)C(O)=C1O [Vitamin C, ascorbic acid] | 20 | 0.03 | 0 | 1 | 9 | 16 | 3 | 7 | 2 | 4 | 73 | 9 | 17 | – | – | 6 | 36 | 13 | 13 | 31 | inhibition at 1 µM [10]: 81%
tocopherol [Vitamin E] | 20 | 0.06 | 56 | 12 | 4 | 9 | 16 | 45 | 12 | 4 | 95 | 6 | 18 | – | – | 3 | – | – | – | – | TNFα (% inh) [3]: 16%; MMP-1 (% inh) [5]: 80%; IL-6 (% inh) [7]: 12%; SBC % inhibition [9]: 21%; IL-6 (% inh) [10]: 82%
